Assay [1] deals with alpha adrenergic receptor. The experiment in a line: Alpha-1 Adrenergic Blockage: Inhibition of Phenylephrine-Induced Increases in Blood Pressure in the Anesthetized Dog. Type of assay: in vivo. As to conditions: i.v., phenylephrine 10 μg/kg. The source says: Dogs were anesthetized and bilaterally vagotomized. A femoral artery and vein were cannulated for detection of diastolic blood pressure and drug administration, respectively. Percent inhibition of alpha adrenergic receptor antagonism was quantified by determining dose-response (increase in diastolic pressure) relationship of phenylephrine before and after various doses of the antagonist.

The target in assay [2] is alpha-1 adrenergic receptor. The experiment in a line: Brain Alpha-1 Radioreceptor Assay (3H-prazosin). The note with it: guinea pig brain membranes, 30 minutes, 30° C., read-out: RECEPTOR BINDING ALPHA-1 (IC50). How it is done: Membrane fragments were prepared from the brains of mature female guinea pigs after removal of the corpus striata. The alpha-1 adrenergic receptor sites were labeled with ^3 H-prazosin. Membrane fragments, ^3 H-prazosin and an unlabeled test compound were incubated for 30 minutes at 30° C. Compound bound to the receptor site was separated from the remaining unbound radioligand by vacuum filtration. Specific binding was determined by the difference between total counts bound and counts bound in the presence of 10-^5 M phentolamine.

For assay [3], the system named is spontaneously hypertensive rats (SHR). The experiment in a line: Antihypertensive Activity: Spontaneously Hypertensive Rat (SHR test). Type of assay: in vivo, rat (male spontaneously hypertensive). The note with it: p.o. or i.v.; for change in vivo at 5 mg/kg: dose 5 mpk. The method, then: Mean arterial pressure and heart rate were monitored from directly cannulated animals. Compounds were administered p.o. or i.v. and blood pressure was recorded for various time intervals post dosing.
Blood pressure changes (expressed as change in control pressure and reported as delta % of control for each animal) were analyzed statistically using a one way analysis of variance with a Dunnett's test. P values less than 0.05 were considered significant.

A further assay addresses T1, 5HT2 receptor (Rattus norvegicus, UniProt P14842).
T1 construct: Membrane fragments were prepared from the frontal cortex dissected from brains obtained from female rats; from tissue; host or cells: frontal cortex, female rats
In words: Brain Serotonin 5HT2 Radioreceptor Assay (3H-ketanserin). It is filed as binding. As to conditions: rat frontal cortex membranes, 15 minutes, 37° C., read-out: RECEPTOR BINDING 5HT-2 (IC50). How it is done:
Membrane fragments were prepared from the frontal cortex dissected from brains obtained from female rats (~150 g). The 5HT2 sites were labeled with ^3 H-ketanserin. Membrane fragments, ^3 H-ketanserin and an unlabeled test compound were incubated for 15 minutes at 37° C. Compound bound to the receptor site was separated from the remaining unbound compound by vacuum filtration.
The ability of a nonlabeled compound to compete with ^3 H-ketanserin for binding sites was a measure of the compound's affinity for the 5HT2 receptor. Specific binding was determined by the difference between total counts bound and counts bound in the presence of 10^-6 M methysergide.
Data are presented as the IC50, the concentration of nonlabeled compound required to displace 50% of the ^3 H-ketanserin specifically bound to 5HT2 binding sites.

A further assay concerns the target T2, 5HT1A receptor (Rattus norvegicus, UniProt P19327).
T2 construct: Membrane fragments were prepared from the frontal cortex dissected from brains obtained from female rats; from tissue; host or cells: frontal cortex, female rats
T2 sequence (P19327 1-422): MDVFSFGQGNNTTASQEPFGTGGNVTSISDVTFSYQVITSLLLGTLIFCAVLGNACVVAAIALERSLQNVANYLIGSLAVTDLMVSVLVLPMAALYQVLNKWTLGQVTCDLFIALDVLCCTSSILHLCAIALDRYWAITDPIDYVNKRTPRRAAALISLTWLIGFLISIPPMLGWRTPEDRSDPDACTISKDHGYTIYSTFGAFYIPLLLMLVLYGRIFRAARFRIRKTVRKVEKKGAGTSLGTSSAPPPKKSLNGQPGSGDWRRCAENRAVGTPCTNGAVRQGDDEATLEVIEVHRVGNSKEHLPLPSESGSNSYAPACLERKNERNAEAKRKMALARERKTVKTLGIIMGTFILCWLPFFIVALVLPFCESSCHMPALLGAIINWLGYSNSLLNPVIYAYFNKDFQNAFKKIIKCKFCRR
In words: Brain Serotonin 5HT1A Radioreceptor Assay (3H-80H-DPAT). It is filed as binding. The note with it: rat frontal cortex membranes, 10 minutes, 37° C., read-out: RECEPTOR BINDING 5HT-1A (IC50). How it is done:
Membrane fragments were prepared from the frontal cortex dissected from brains obtained from female rats (~150 g). The 5HT1A sites were labeled with ^3 H-80H-dipropylaminotetralin (^3 H-80H-DPAT). Membrane fragments, ^3 H-80H-DPAT and an unlabeled test compound were incubated for 10 minutes at 37° C. The tubes were then placed in an ice bath for an additional 10 minutes. Compound bound to the receptor site was separated from the remaining unbound compound by vacuum filtration.
The ability of a nonlabeled compound to compete with ^3 H-80H-DPAT for binding sites was a measure of the compound's affinity for the 5HT1A receptor. Specific binding was determined by the difference between total counts bound and counts bound in the presence of 10^-5 M serotonin.
Data are presented at the IC50, the concentration of nonlabeled compound required to displace 50% of the ^3 H-80H-DPAT specifically bound to 5HT1A binding sites.

Where [4] appears, read: Rattus norvegicus, read-out: SHR TEST: change in blood pressure (delta % of control).

Molecules are shown by their SMILES.

T1 sequence (P14842 whole entry, the tested form may be a part): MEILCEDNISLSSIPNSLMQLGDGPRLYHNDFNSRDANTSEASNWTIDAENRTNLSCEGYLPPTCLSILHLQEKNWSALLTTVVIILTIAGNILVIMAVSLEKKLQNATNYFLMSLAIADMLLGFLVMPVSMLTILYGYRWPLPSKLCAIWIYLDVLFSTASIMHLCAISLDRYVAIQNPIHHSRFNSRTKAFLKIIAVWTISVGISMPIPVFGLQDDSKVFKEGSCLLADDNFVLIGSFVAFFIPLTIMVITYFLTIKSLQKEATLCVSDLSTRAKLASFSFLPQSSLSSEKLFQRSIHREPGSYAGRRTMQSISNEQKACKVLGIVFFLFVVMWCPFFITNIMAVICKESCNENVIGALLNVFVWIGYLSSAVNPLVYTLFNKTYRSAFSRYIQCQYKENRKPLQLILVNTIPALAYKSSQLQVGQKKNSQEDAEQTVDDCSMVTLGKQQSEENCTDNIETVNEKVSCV

As for `COc1ccccc1N1CCN(CCn2c(=O)c3csc4c3n(c2=O)CCC4=O)CC1` [Example 1, 3,4,5,7,8,9-Hexahydro-4-[2-[4-(2-methoxyphenyl)piperazin-1-yl]ethyl]thieno[4,3,2-de]pyrido[1,2c]pyrimidine-3,5,9-trione], the “% INHIB OF PHENYLEPHRINE RESPONSE” value in assay [1] (dose 0.03 mpk) is reported as 86%. For the same molecule, the IC50 in assay [2] is 18 nM; on 5HT2 receptor, 6500 nM; on 5HT1A receptor, 25 nM. Also, the “SHR TEST: change in mean arterial blood pressure” value (“SHR TEST: change” below) in assay [3] (dose 2.5 mpk) was -59 mm Hg.

Take `Cc1ccccc1N1CCN(CCn2c(=O)c3csc4c3n(c2=O)CCC4=O)CC1` [Example 2, 3,4,5,7,8,9-Hexahydro-4-[2-[4-(2-methylphenyl)piperazin-1-yl]ethyl]thieno[4,3,2-de]pyrido[1,2-c]pyrimidine-3,5,9-trione]: in assay [1] (dose 0.03 mpk), the “% INHIB OF PHENYLEPHRINE RESPONSE” value came out at 83%. In assay [3] (setting [4]), the change in vivo at 5 mg/kg is -33%.

In the case of `O=C1CCn2c(=O)n(CCN3CCN(c4ccccc4Cl)CC3)c(=O)c3csc1c32` [Example 3, 4-[2-[4-(2-Chlorophenyl)piperazin-1-yl]ethyl]3,4,5,7,8,9-hexahydrothieno[4,3,2-de]pyrido[1,2-c]pyrimidine-3,5,9-trione], the “% INHIB OF PHENYLEPHRINE RESPONSE” value in assay [1] (dose 0.03 mpk) stood at 55%.

On to `O=C1CCn2c(=O)n(CCN3CCN(c4ccccc4)CC3)c(=O)c3csc1c32` [Example 4, 3,4,5,7,8,9-Hexahydro-4-[2-(4-phenylpiperazin-1-yl)ethyl]thieno[4,3,2-de]pyrido[1,2-c]pyrimidine-3,5,9-trione], for which, in assay [1] (dose 0.03 mpk), the “% INHIB OF PHENYLEPHRINE RESPONSE” value is listed as 88%.

In the case of `COc1cccc(N2CCN(CCn3c(=O)c4csc5c4n(c3=O)CCC5=O)CC2)c1` [Example 5, 3,4,5,7,8,9-Hexahydro-4-[2-[4-(3-methoxyphenyl)piperazin-1-yl]ethyl]thieno[4,3,2-de]pyrido[1,2-c]pyrimidine-3,5,9-trione], the “% INHIB OF PHENYLEPHRINE RESPONSE” value in assay [1] (dose 0.03 mpk) is on record as 41%.

As for `COc1ccc(N2CCN(CCn3c(=O)c4csc5c4n(c3=O)CCC5=O)CC2)cc1` [Example 8, 3,4,5,7,8,9-Hexahydro-4-[2-[4-(4-methoxyphenyl)piperazin-1-yl]ethyl]thieno[4,3,2-de]pyrido[1,2-c]pyrimidine-3,5,9-trione], the “% INHIB OF PHENYLEPHRINE RESPONSE” value in assay [1] (dose 0.03 mpk) amounted to 40%.

With `COc1ccccc1N1CCN(CCn2c(=O)c3c(C)sc4c3n(c2=O)CCC4=O)CC1` [Example 13, 3,4,5,7,8,9-Hexahydro-2-methyl-4-[2-[4-(2-methoxyphenyl)piperazin-1-yl]ethyl]thieno[4,3,2-de]pyrido[1,2-c]pyrimidine-3,5,9-trione], in assay [1] (dose 0.03 mpk), the “% INHIB OF PHENYLEPHRINE RESPONSE” value worked out at 88%.

For `COc1ccccc1N1CCN(CCn2c(=O)c3scc4c3n(c2=O)CCC4=O)CC1` [Example 14, 7.8-Dihydro-4-[2-[4-(2-methoxyphenyl)-piperazin-1-yl]ethyl]thieno[2,3,4-de]pyrido[1,2-c]pyrimidine-3,5,9-trione], the IC50 worked out at 6 nM in assay [2], 1500 nM at 5HT2 receptor and 66 nM at 5HT1A receptor. Further, the change in vivo at 5 mg/kg in assay [3] (setting [4]) was -30%.

On to `COc1ccccc1N1CCN(CCn2c(=O)c3csc4c3n(c2=O)CCC4O)CC1` (stereo not drawn) [Example 21, 3,4,5,7,8,9-Hexahydro-9-hydroxy-4-[2-[4-(2-methoxyphenyl)piperazin-1-yl]ethyl]thieno[4,3,2-de]pyrido[1,2-c]pyrimidine-3,5-dione], for which the “% INHIB OF PHENYLEPHRINE RESPONSE” value in assay [1] (dose 0.03 mpk) is reported as 96%. In addition, the change in vivo at 5 mg/kg in assay [3] (setting [4]) was -24.7%.

Take `COc1ccccc1N1CCN(CCn2c(=O)c3csc4c3n(c2=O)CC=C4)CC1` [Example 24, 3,4,5,7-Tetrahydro-4-[2-[4-(2-methoxyphenyl)piperazin-1-yl]ethyl]thieno[4,3,2-de]pyrido[1,2-c]pyrimidine-3,5-dione]: in assay [1] (dose 0.03 mpk), the “% INHIB OF PHENYLEPHRINE RESPONSE” value amounted to 98%. In addition, the IC50 in assay [2] is 23 nM; at 5HT2 receptor, 2000 nM; at 5HT1A receptor it was 120 nM. Further, the “SHR TEST: change” value in assay [3] (dose 2.5 mpk) is -59.0 mm Hg.

As to `COc1ccccc1N1CCN(CCn2c(=O)c3csc4c3n(c2=O)CCNC4=O)CC1` [Example 25], the “% INHIB OF PHENYLEPHRINE RESPONSE” value in assay [1] (dose 0.003 mpk) was 94%. Moreover, the 50% inhibitory concentration (IC50) came to 45 nM in assay [2], 2000 nM on 5HT2 receptor and 48 nM on 5HT1A receptor. Further, in assay [3] (dose 2.5 mpk), the “SHR TEST: change” value is given as -58.0 mm Hg.

As for `CON=C1CCn2c(=O)n(CCN3CCN(c4ccccc4OC)CC3)c(=O)c3csc1c32` [Example 26, 3,4,5,7,8,9-Hexahydro-9-methoxyimino-4-[2-[4-(2-methoxyphenyl)piperazin-1-yl]ethyl]-thieno[4,3,2-de]pyrido[1,2-c]pyrimidine-3,5-dione], the “% INHIB OF PHENYLEPHRINE RESPONSE” value in assay [1] (dose 0.03 mpk) was 72%. The IC50 in assay [2] was determined as 40 nM; on 5HT2 receptor, 2000 nM; on 5HT1A receptor it was 0.72 nM.

With `COc1ccccc1N1CCN(CCn2c(=O)c3csc4c3n(c2=O)CCC4OC(C)=O)CC1` (stereo not drawn) [Example 30, 9-Acetyloxy-3,4,5,7,8,9-hexahydro-4-[2-[4-(2-methoxyphenyl)piperazin-1-yl]ethyl]thieno[4,3,2-de]pyrido[1,2-c]pyrimidine-3,5-dione], the “% INHIB OF PHENYLEPHRINE RESPONSE” value in assay [1] (dose 0.03 mpk) is given as 100%. The change in vivo at 5 mg/kg in assay [3] (setting [4]) is -33.2%.

In the case of `CCCC(=O)OC1CCn2c(=O)n(CCN3CCN(c4ccccc4OC)CC3)c(=O)c3csc1c32` (stereo not drawn) [Example 31], in assay [1] (dose 0.03 mpk), the “% INHIB OF PHENYLEPHRINE RESPONSE” value is reported as 100%.

As for `CCCCCC(=O)OC1CCn2c(=O)n(CCN3CCN(c4ccccc4OC)CC3)c(=O)c3csc1c32` (stereo not drawn) [Example 32, 3,4,5,7,8,9-Hexahydro-4-[2-[4-(2-methoxyphenyl)piperazin-1-yl]ethyl]-9-(hexanoyloxy)thieno[4,3,2-de]pyrido[1,2-c]pyrimidine-3,5-dione], the “% INHIB OF PHENYLEPHRINE RESPONSE” value in assay [1] (dose 0.03 mpk) came out at 90%.

Regarding `COc1ccccc1N1CCN(CCn2c(=O)c3csc4c3n(c2=O)CCC4OC(=O)c2ccccc2)CC1` (stereo not drawn) [Example 35, 9-Benzoyloxy-3,4,5,7,8,9-hexahydro-4-[2-[4-(2-methoxyphenyl)piperazin-1-yl]ethyl]thieno[4,3,2-de]pyrido[1,2-c]pyrimidine-3,5-dione], the “% INHIB OF PHENYLEPHRINE RESPONSE” value in assay [1] (dose 0.03 mpk) stood at 89%. Besides, the IC50 came to 0.015 nM in assay [2], 1500 nM at 5HT2 receptor and 130 nM at 5HT1A receptor. Also, the change in vivo at 5 mg/kg in assay [3] (setting [4]) was -16.6%.

Turning to `COc1ccccc1N1CCN(CCn2c(=O)c3csc4c3n(c2=O)CCC4N)CC1` (stereo not drawn) [Example 38, 9-Amino-3,4,5,7,8,9-hexahydro-4-[2-[4-(2-methoxyphenyl)piperazin-1-yl]ethyl]thieno[4,3,2-de]pyrido[1,2-c]pyrimidine-3,5-dione], the IC50 in assay [2] worked out at 10 nM; at 5HT2 receptor, 800 nM; on 5HT1A receptor, 50 nM. Further, in assay [3] (Rattus norvegicus, dose 2.5 mpk, read-out: SHR TEST: change in blood pressure (delta % of control)), the change in vivo at 2.5 mg/kg was -30.1%.

Values taken from patent US4939137A, “Ring-fused thienopyrimidinedione derivatives” (Ortho Pharmaceutical Corporation, priority 1989, dated 1990).
